Test results from patent US11111249B2, “Heteroaryl-pyrazole derivative, and preparation method therefor and medical application thereof” (Jiangsu Hengrui Medicine Co., Ltd., priority 2017, dated 2021).

What was measured:
[1] = system: peripheral blood mononuclear cells (PBMC); assay: Stimulation of the secretion of IFN-α from PBMC (HTRF); assay type: cell-based, human; conditions: lowest concentration giving cytokine level at least 3 times the minimum detection limit; 24 hours
Experimental: The ability of the compound of the present application to stimulate the secretion of IFN-α from PBMC was determined by the following experimental method:
Compounds were diluted in pure DMSO at a maximum concentration of 5 mM in 4-fold gradients for a total of 9 points. Then 4 μL of the compound were taken and added to 196 μL of RMPI 1640 medium containing 10% FBS and mixed. 50 μL per well were taken and added into a new 96-well cell culture plate.
All reagents were equilibrated to room temperature, and a 250 mL culture flask was taken and 60 mL blood and PBS+2% FBS were added therein, and the mixture was gently diluted by pipetting. […] The cells were resuspend with RMPI 1640 medium containing 10% FBS and counted, adjusted the amount of PBMC to 3.33×10^6 cells/mL, and 150 μL were taken and added to the cell culture plate to which the compound had been added, and cultured at 37° C. in a 5.0% CO2 incubator for 24 hours. […]
It was read in the HTRF mode on the PHERAStar. […]
The ability of the compound of the present application and the control compound (prepared by the method of embodiment 21 of WO2016023511) to stimulate the secretion of IFN-α from PBMC were determined by the above test, and the measured MEC values were as shown in Table 2.

CYP2D6 = biological target: T1, CYP2D6 (Homo sapiens, UniProt P10635); assay: Inhibition of human liver microsome CYP2D6 (dextromethorphan substrate); assay type: in vitro ADME; conditions: human liver microsomes, 30 minutes, read-out: IC50 for the metabolic site on CYP2D6
T1 construct: Human liver microsomes (Corning Gentest); tissue Corning Gentest; host or cells: human liver microsomes
T1 sequence (P10635 whole entry): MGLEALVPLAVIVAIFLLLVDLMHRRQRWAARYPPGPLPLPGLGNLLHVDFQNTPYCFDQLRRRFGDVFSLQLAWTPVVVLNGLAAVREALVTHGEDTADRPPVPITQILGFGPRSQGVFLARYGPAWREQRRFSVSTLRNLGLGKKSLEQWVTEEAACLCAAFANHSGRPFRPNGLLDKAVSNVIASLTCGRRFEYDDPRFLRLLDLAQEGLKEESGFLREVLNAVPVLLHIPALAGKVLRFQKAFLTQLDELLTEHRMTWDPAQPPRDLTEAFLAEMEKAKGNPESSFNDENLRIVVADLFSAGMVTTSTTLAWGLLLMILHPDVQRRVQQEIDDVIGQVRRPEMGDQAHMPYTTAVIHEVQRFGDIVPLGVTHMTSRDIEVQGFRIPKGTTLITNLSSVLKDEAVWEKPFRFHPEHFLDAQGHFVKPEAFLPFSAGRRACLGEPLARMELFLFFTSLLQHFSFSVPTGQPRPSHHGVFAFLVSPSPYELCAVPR
Experimental: The enzymatic activity of the compound of the present application against human liver microsome CYP2D6 was determined by the following experimental method:
CYP probe substrate (20 μM Dextromethorphan, SIGMA Q0750) and positive control inhibitor (Quinidine, SIGMA D9684).
100 mM PBS buffer was configured, and 2.5 mg/mL microsome solution and 5 mM NADPH solution were prepared with this buffer, and the 5× concentration compound working solution was diluted with PBS (150, 50, 15, 5, 1.5, 0.15, 0.015, 0 μM). The 5× concentration of Quinidine working solution (150, 50, 15, 5, 1.5, 0.15, 0.015, 0 μM) was diluted with PBS. Dextromethorphan working solution was diluted to a concentration of 20 μM with PBS.
20 μL each of 2.5 mg/mL microsome solution, 20 μM Dextromethorphan working solution, MgCl2 solution and compound working solution (150, 50, 15, 5, 1.5, 0.15, 0.015, 0 μM, each concentration was setted differently reaction system) were taken and mixed evenly. The compound was replaced with the same concentration of Quinidine at the positive control group. At the same time, 5 mM NADPH solution was pre-incubated for 5 minutes at 37° C. After 5 minutes, 20 μL NADPH were added into the wells, and the reaction was started and incubated for 30 minutes. All samples were incubated for two samples. […]

Row | SMILES | MEC (Minimal Effective Concentration) to stimulate the secretion of IFN-α from PBMC [1] | IC50 (CYP2D6)
1 | CCCCOc1nc(N)c2[nH]nc(Cc3ccc(CN4CCCC4)cc3)c2n1 [Embodiment 1, 5-Butoxy-3-(4-(pyrrolidin-1-ylmethyl)benzyl)-1H-pyrazolo[4,3-d]pyrimidin-7-amine] | 0.28 nM | > 30 µM
2 | CCCCOc1nc(N)c2[nH]cc(Cc3ccc(CN4CCCC4)cc3)c2n1 [Embodiment 21 of WO2016023511] | 5.5 nM | 5.3 µM
